Laboratory results reported in PubChem BioAssay (NCI).
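Test compounds were applied to cells in 96-well plates for 48 hours at 5 doses. Definition used: TGI = concentration required for complete inhibition of growth.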

How the values were obtained:
Assay in all cases: NCI-60 cell line screen, 48 h
NCI-H522 lung = tested on: NCI-H522 lung
MOLT-4 leukemia = tested on: MOLT-4 leukemia
DU-145 prostate = tested on: DU-145 prostate
SF-268 CNS = tested on: SF-268 CNS
UACC-62 melanoma = tested on: UACC-62 melanoma
COLO 205 colon = tested on: COLO 205 colon
RPMI-8226 leukemia = tested on: RPMI-8226 leukemia
SF-295 CNS = tested on: SF-295 CNS
SN12C renal = tested on: SN12C renal
A498 renal = tested on: A498 renal
HS 578T breast = tested on: HS 578T breast
PC-3 prostate = tested on: PC-3 prostate
MDA-N = tested on: MDA-N
MCF7 breast = tested on: MCF7 breast
RXF 393 renal = tested on: RXF 393 renal
UO-31 renal = tested on: UO-31 renal
ACHN renal = tested on: ACHN renal
SNB-19 CNS = tested on: SNB-19 CNS
SF-539 CNS = tested on: SF-539 CNS
SK-OV-3 ovarian = tested on: SK-OV-3 ovarian
MALME-3M melanoma = tested on: MALME-3M melanoma
A549 NSCLC = tested on: A549 NSCLC
MDA-MB-435 = tested on: MDA-MB-435
HOP-62 NSCLC = tested on: HOP-62 NSCLC
M14 melanoma = tested on: M14 melanoma
HCT-116 colon = tested on: HCT-116 colon
BT-549 breast = tested on: BT-549 breast
OVCAR-4 ovarian = tested on: OVCAR-4 ovarian
MDA-MB-231 breast = tested on: MDA-MB-231 breast
NCI-H23 lung = tested on: NCI-H23 lung
NCI-H460 lung = tested on: NCI-H460 lung
IGROV1 ovarian = tested on: IGROV1 ovarian
SK-MEL-2 melanoma = tested on: SK-MEL-2 melanoma
KM12 colon = tested on: KM12 colon
CAKI-1 renal = tested on: CAKI-1 renal
EKVX NSCLC = tested on: EKVX NSCLC
SNB-75 CNS = tested on: SNB-75 CNS
HL-60(TB) leukemia = tested on: HL-60(TB) leukemia
SK-MEL-28 melanoma = tested on: SK-MEL-28 melanoma
T-47D breast = tested on: T-47D breast
K-562 leukemia = tested on: K-562 leukemia
U251 CNS = tested on: U251 CNS
NCI/ADR-RES ovarian = tested on: NCI/ADR-RES ovarian
TK-10 renal = tested on: TK-10 renal
HCT-15 colon = tested on: HCT-15 colon
CCRF-CEM leukemia = tested on: CCRF-CEM leukemia
HCC-2998 colon = tested on: HCC-2998 colon
LOX IMVI melanoma = tested on: LOX IMVI melanoma
OVCAR-8 ovarian = tested on: OVCAR-8 ovarian
786-0 renal = tested on: 786-0 renal
OVCAR-5 ovarian = tested on: OVCAR-5 ovarian
SW-620 colon = tested on: SW-620 colon
OVCAR-3 ovarian = tested on: OVCAR-3 ovarian
UACC-257 melanoma = tested on: UACC-257 melanoma
HT29 colon = tested on: HT29 colon
SK-MEL-5 melanoma = tested on: SK-MEL-5 melanoma
HOP-92 NSCLC = tested on: HOP-92 NSCLC

Measured: TGI

Nc1ncnc2c1ccn2CC#CCO
> 100 µM: NCI-H522 lung | MOLT-4 leukemia | DU-145 prostate | SF-268 CNS | UACC-62 melanoma | COLO 205 colon | RPMI-8226 leukemia | SF-295 CNS | SN12C renal | A498 renal | HS 578T breast | PC-3 prostate | MDA-N | MCF7 breast | RXF 393 renal | UO-31 renal | ACHN renal | SNB-19 CNS | SF-539 CNS | SK-OV-3 ovarian | MALME-3M melanoma | A549 NSCLC | MDA-MB-435 | HOP-62 NSCLC | M14 melanoma | HCT-116 colon | BT-549 breast | OVCAR-4 ovarian | MDA-MB-231 breast | NCI-H23 lung | NCI-H460 lung | IGROV1 ovarian | SK-MEL-2 melanoma | KM12 colon | CAKI-1 renal | EKVX NSCLC | SNB-75 CNS | HL-60(TB) leukemia | SK-MEL-28 melanoma | T-47D breast | K-562 leukemia | U251 CNS | NCI/ADR-RES ovarian | TK-10 renal | HCT-15 colon | CCRF-CEM leukemia | HCC-2998 colon | LOX IMVI melanoma | OVCAR-8 ovarian | 786-0 renal | OVCAR-5 ovarian | SW-620 colon | OVCAR-3 ovarian | UACC-257 melanoma | HT29 colon | SK-MEL-5 melanoma | HOP-92 NSCLC
